Test results taken from patent US11266655B2, “Methods and compositions for treating urea cycle disorders” (Camp4 Therapeutics Corporation, priority 2019, dated 2022).
“And” between values parts separate entries of the source, which are not always exact repeats. Identical values can stand only once. Like-named read-outs stand apart in the source and are kept apart here.

B1: Anti mullerian hormone: member of the TGF-B gene family which mediates male sexual differentiation (protein, UniProt P03971 452-560, looked up)
Muellerian-inhibiting factor: SAGATAADGPCALRELSVDLRAERSVLIPETYQANNCQGVCGWPQSDRNPRYGNHVVLLLKMQVRGAALARPPCCVPTAYAGKLLISLSEERISAHHVPNMVATECGCR
B2: Nodal: 13 kDa member of the TGF-B superfamily (protein, UniProt Q96S42 238-347, looked up)
Nodal homolog: HHLPDRSQLCRKVKFQVDFNLIGWGSWIIYPKQYNAYRCEGECPNPVGEEFHPTNHAYIQSLLKRYQPHRVPSTCCAPVKTKPLSMLYVDNGRVLLDHHKDMIVEECGCL

Legend:
NAGS = type: cell-based, human; settings: for Relative NAGS level vs Untreated (±Standard Deviation): primary human hepatocytes, triplicate (Table 21, FIG. 13)
ARG1 = assay: RNA-seq of compound-treated primary human hepatocytes, ARG1 expression; type: cell-based; settings: for Fold change (Log 2) vs untreated, ARG1 expression: primary human hepatocytes, RNA-seq (Table 7)
CPS1 = assay: RNA-seq of compound-treated primary human hepatocytes, CPS1 expression; type: cell-based; settings: for CPS1 expression, Fold change (Log 2) vs untreated: primary human hepatocytes, RNA-seq
urea cycle genes = assay: RNA-seq of primary human hepatocytes, compounds that modulate multiple urea cycle-related genes; type: cell-based; settings: primary human hepatocytes, RNA-seq; for Up-regulated Genes: urea cycle-related genes significantly increased (Table 10)
OTC = assay: RNA-seq of compound-treated primary human hepatocytes, OTC expression; type: cell-based; settings: for OTC expression, Fold change (Log 2) vs untreated: primary human hepatocytes, RNA-seq
SLC25A15 = assay: RNA-seq of compound-treated primary human hepatocytes, SLC25A15 expression; type: cell-based; settings: for Relative SLC25A15 level vs Untreated (±Standard Deviation): primary human hepatocytes, triplicate (Table 24, FIG. 16A-B)
SLC25A13 = assay: RNA-seq of compound-treated primary human hepatocytes, SLC25A13 expression; type: cell-based; settings: primary human hepatocytes, triplicate (Table 23, FIG. 15)
ASS1 = assay: RNA-seq of compound-treated primary human hepatocytes, ASS1 expression; type: cell-based

Row | Molecule | Fold change (Log 2) vs untreated, NAGS expression (NAGS) [Log 2] | Fold change (Log 2) vs untreated, ARG1 expression (ARG1) [Log 2] | CPS1 expression, Fold change (Log 2) vs untreated (CPS1) [Log 2] | number of urea cycle genes whose expression was significantly up-regulated (urea cycle genes) | Up-regulated Genes (urea cycle genes) | OTC expression, Fold change (Log 2) vs untreated (OTC) [Log 2] | also measured
1 | Activin | 0.69 | 2.01 | 2.23 | four | NAGS, CPS1, OTC, ARG1 | 0.94 | 
2 | COc1cccc2cc(-c3nc([C@H]4CC[C@H](C(=O)O)CC4)n4ncnc(N)c34)[nH]c12 [OSI-027] |  |  |  |  |  |  | Relative NAGS level vs Untreated (±Standard Deviation) (NAGS; 0.3 μM): 1.46 ± 0.07; Relative NAGS level vs Untreated (±Standard Deviation) (NAGS; 1 μM): 1.37 ± 0.27; Relative NAGS level vs Untreated (±Standard Deviation) (NAGS; 3 μM): 2.51 ± 0.16; Relative NAGS level vs Untreated (±Standard Deviation) (NAGS; 10 μM): 2.14 ± 0.12; Relative SLC25A15 level vs Untreated (±Standard Deviation) (SLC25A15; 1 μM): 1.53 ± 0.01; Relative SLC25A15 level vs Untreated (±Standard Deviation) (SLC25A15; 3 μM): 1.87 ± 0.46; Relative SLC25A15 level vs Untreated (±Standard Deviation) (SLC25A15; 10 μM): 1.52 ± 0.04; Relative SLC25A13 level vs Untreated (±Standard Deviation) (SLC25A13; 1 μM): 1.53 ± 0.01; Relative SLC25A13 level vs Untreated (±Standard Deviation) (SLC25A13; 3 μM): 1.87 ± 0.46; Relative SLC25A13 level vs Untreated (±Standard Deviation) (SLC25A13; 10 μM): 1.52 ± 0.04; Relative ASS1 level vs Untreated (±Standard Deviation) (ASS1; 1 μM, primary human hepatocytes, triplicate (Table 15, FIG. 7)): 1.55 ± 0.16; Relative ASS1 level vs Untreated (±Standard Deviation) (ASS1; 3 μM, primary human hepatocytes, triplicate (Table 15, FIG. 7)): 1.45 ± 0.10; Relative ASS1 level vs Untreated (±Standard Deviation) (ASS1; 10 μM, primary human hepatocytes, triplicate (Table 15, FIG. 7)): 2.05 ± 0.00
3 | HGF/SF: Hepatocyte Growth Factor, also known as scatter factor (SF) | 0.56 | 1.51 | 2.02 | four | NAGS, CPS1, OTC, ARG1 | 0.56 | 
4 | FC(F)(F)c1ccc(/C=C/c2nc(COc3ccc(CCCCn4ccnn4)cc3)co2)cc1 [Mubritinib (TAK 165), Mubritinib] |  |  |  |  |  |  | Increase in SLC25A15 gene expression (qualitative) (SLC25A15): greatest increase; Relative ARGI level vs Untreated (±Standard Deviation) (ARG1): 1.93 ± 0.05 and 1.86 ± 0.04; increase in ARG1 gene expression (Tables 17, 18, FIG. 9, 10) (ARG1): greatest increase; increase in CPS1 gene expression (Tables 19, 20, FIG. 11, 12) (CPS1): greatest increase; Relative SLC25A13 level vs Untreated (±Standard Deviation) (SLC25A13; 0.3 μM): 1.34 ± 0.33; increase in OTC gene expression (Table 14, FIG. 6) (OTC): significant increase; Relative ASS1 level vs Untreated (±Standard Deviation) (ASS1): 2.56 ± 0.11 and 2.23 ± 0.53 and 2.52 ± 0.15 and 1.66 ± 0.98 and 1.87 ± 0.24 and 2.14 ± 0.39 and 2.77 ± 0.69; increase in ASS1 gene expression (Tables 15, 16, FIG. 7, 8) (ASS1): greatest increase
5 | B1 |  | 2.06 | 2.35 | three | CPS1, OTC, ARG1 | 0.81 | 
6 | B2 |  | 2.05 | 2.44 | three | CPS1, OTC, ARG1 | 0.68 | 
